Assay results reported in publication PMC6356231, “Capillasterin A, a Novel Pyrano[2,3-f]chromene from the Australian Crinoid Capillaster multiradiatus” (Marine Drugs, 2019).
Where two headings read alike, the source gives them in different places. One block for each molecule: values may come before it.

Key:
[1] = test system: multidrug transporter ABCG2; design: method as in PMID 20627559; details: cited from earlier work
[2] = test system: HIV-1 strain NL4.3; assay: multi-cycle HIV-1 replication assay in CEM-GXR GFP-reporter T cells; assay type: cell-based; details: for EC50: read-out: EC50, in vitro HIV-1 replication; for inhibition of HIV-1 replication (in words): CEM-GXR T cell line
Experimental: The ability of compounds 1–7 to inhibit HIV-1 replication was evaluated in vitro using an established multi-cycle replication assay. Briefly, the CEM-GXR T cell line, which contains an HIV-1 promoter-driven green fluorescent protein (GFP) reporter, was infected with the full-length, infectious HIV-1 strain NL4.3 at a multiplicity of infection of 0.03 [18]. After 24 hours, cells were washed and subsequently incubated with compounds 1–7, the control HIV inhibitor efavirenz, or 0.1% DMSO vehicle control. GFP expression, a marker of viral replication, was then measured by flow cytometry after 72 hours.
(§1) The following reagents were obtained from the NIH AIDS Reagent Program: CEM CD4^+ cells (CEM) from Dr. J.P. Jacobs, [23] and pNL4-3 from M. Martin [24]. Efavirenz and panobinostat were purchased from Sigma-Aldrich (St. Louis, MO, USA). CEM and CEM-derived GXR25 GFP-reporter T cells (CEM-GXR; [18]) were cultured in R10+ medium [RPMI-1640 with HEPES and L-Glutamine (Lonza, Basel, Switzerland), 10% fetal calf serum, 100 U of penicillin/mL, and 100 µg of streptomycin/mL Sigma-Aldrich (St. Louis, MO, USA)]. Production of HIV-1 NL4.3 and multi-cycle HIV-1 replication assays were performed as described previously. Apoptosis assays were performed by staining CEM cells with annexin V-APC (BioLegend, San Diego, CA) according to manufacturer instructions.

[3] = test system: GFP-expressing immortalised mouse olfactory ensheathing cells (mOEC); assay: mOEC cell proliferation (resazurin viability) assay; assay type: cell-based; details: 10 µM, 24 hours of treatment
Experimental: Compounds 1–7 have now been added to the Davis Open-Access Compound Library housed at Compounds Australia, Griffith University, where they are available for collaboration in drug discovery or chemical biology research.
The cell proliferation assay was performed according to the method described by Chen et al., with modification. Briefly, GFP-expressing immortalised mouse OECs (mOEC) were seeded at 2000 cells/well in a 384-well microplate (Greiner Bio-One, Kremsmünster, Austria) with a Multidrop™ Combi Reagent Dispenser (Thermo Fisher Scientific, Waltham, MA, USA) using the BioCel Automation System (Agilent Technologies, Santa Clara, CA, USA) and incubated overnight at 37 °C under 5% CO2. After 24 hours, the cells were treated with 4 different concentrations of pure compounds (10, 1, 0.1 and 0.01 µM). 0.2% DMSO was used as negative control. Plates were incubated for 24 hours at 37 °C under 5% CO2. Cell viability of mOECs was measured by adding 5 µL of resazurin (500 μM, Sigma-Aldrich, Sydney, Australia) to the cells and incubated in dark for 4 hours at 37 °C under 5% CO2. The dehydrogenase enzymes found in metabolically active cells will convert resazurin to resofurin products that are soluble in culture medium. The fluorescent resofurin products produced by the viable cells are quantified using an EnVision™ Multilabel (PerkinElmer, Waltham, MA, USA) plate reader at 535/595nm. After that, the cells were fixed and stained with Hoechst (Thermo Fisher Scientific, Waltham, MA, USA) and stored at 4 °C prior to imaging. Cells were imaged automatically using Operetta™ (PerkinElmer, Waltham, MA, USA). Individual cell segmentation and cell count were performed using the Harmony 3.5.2® software.

[4] = test system: CEM cells; assay: apoptosis (annexin V-APC) cellular toxicity assay in CEM cells; assay type: cell-based; details: 72 hours
Experimental: Compounds 1–7 were further assessed for cellular toxicity in CEM cells, the parental cell line of CEM-GXR. After 72 hours’ treatment with compounds, toxicity was assessed by measuring the surface expression of the early apoptotic marker annexin V by flow cytometry (by staining with annexin V-APC). […] In contrast, no increase in apoptosis was observed up to 100 µM for compounds 1–7, with the exception of compound 2, which induced 1.4 ± 0.2 and 2.2 ± 0.4-fold increases at 30 and 100 µM, respectively.
as §1

[5] = compound stability (observation); assay type: physicochemical
[6] = Human immunodeficiency virus 1, CEM-GXR T cells, HIV-1 NL4.3, MOI 0.03, GFP by flow cytometry after 72 hours, mean ± s.d. of three independent experiments

Compound: CCCc1cc(=O)c2c(O)c3c(OC)cc(O)cc3c(OC)c2o1
inhibition of ABCG2 (in words) [1]: inhibit

Compound: CCCc1cc(=O)c2c(cc(C(C)=O)c3c(OC)cc(=O)oc32)o1 [Compound 1, 5-acetyl-4-methoxy-8-propylpyrano[2,3-f]chromene-2,10-dione]
EC50 [2, 6]: > 100 µM | increase in mOEC viability (in words) [3]: none of the compounds showed a significant increase

Compound: CCCc1cc(=O)c2c(O)cc3cc(O)cc(OC)c3c2o1 [Compound 2, comaparvin]
fold increase in activity as compared to 5 ([2]; HIV-1 replication EC50, angular vs linear naphthopyrone): approximately 2.0 fold | EC50 [2, 6]: 7.5 ± 1.7 µM | fold increase in apoptotic cells relative to 0.1% DMSO ([4]; 30 µM): 1.4 ± 0.2 fold | fold increase in apoptotic cells relative to 0.1% DMSO ([4]; 100 µM): 2.2 ± 0.4 fold

Compound: COc1cc(O)cc2cc(O)c3c(=O)cc(C)oc3c12 [Compound 3, TMC-256C1]
inhibition of HIV-1 replication (in words) [2]: weaker but consistent antiviral activity | fold reduction in activity compared to 2 ([2]; HIV-1 replication EC50, methyl instead of propyl at C-2): 3.4 fold | EC50 [2, 6]: 25.5 ± 3.4 µM

Compound: CCCc1cc(=O)c2c(OC)c(OC)c3cc(O)cc(OC)c3c2o1 [Compound 4, 6-methoxycomaparvin-5-methyl ether]
EC50 [2, 6]: 14.5 ± 5.8 µM | increase in mOEC viability (in words) [3]: none of the compounds showed a significant increase

Compound: CCCc1cc(=O)c2c(O)c3c(OC)cc(O)cc3cc2o1 [Compound 5, 5,8-dihydroxy-6-methoxy-2-propyl-4H-naphtho[2,3-b]pyran-4-one]
EC50 [2, 6]: 15.6 ± 6.5 µM

Compound: CCCc1cc(=O)c2c(O)c3c(OC)cc(O)cc3c(OC)c2o1 [Compound 6, 5,8-dihydroxy-6,10-dimethoxy-2-propyl-4H-naphtho[2,3-b]pyran-4-one]
EC50 [2, 6]: 20.2 ± 4.9 µM

Compound: COc1cc(O)cc2cc3oc(C)cc(=O)c3c(O)c12 [Compound 7, TMC-256A1]
inhibition of HIV-1 replication (in words) [2]: no detectable activity | EC50 [2, 6]: > 100 µM | increase in mOEC viability (in words) [3]: none of the compounds showed a significant increase

stability (in words) [5]: unstable
Compound: CCCc1cc(=O)c2c(O)c(OC)c3cc(O)cc(OC)c3c2o1 [Compound 8, 6-methoxycomaparvin]

Compound: O=C1Nc2ccc(Cl)cc2[C@@](C#CC2CC2)(C(F)(F)F)O1 [Efavirenz, reference compound]
EC50 ([2]; Human immunodeficiency virus 1, CEM-GXR, 72 h): 0.0025 ± 0.0019 µM

Compound: COc1cc(O)cc2cc3oc(C)cc(=O)c3c(O)c12 [TMC-256A1]
inhibition of ABCG2 (in words) [1]: inhibit

Compound: Cc1[nH]c2ccccc2c1CCNCc1ccc(/C=C/C(=O)NO)cc1 [panobinostat, reference compound]
fold increase in apoptotic cells relative to 0.1% DMSO ([4]; 3 µM): 4.2 ± 1.8 fold
